Our source for the Ki values is ChEMBL document CHEMBL3886531, “Dihydropyrrolopyrimidine derivatives” (2016).

The target in the experiment is PI3-kinase p110-alpha/p85-alpha (Homo sapiens, UniProt P42336). In words: Biochemical Assay: PI3KA_FL: Genes encoding for full length p110alpha and p85alpha subunits of PI3Kalpha complex were subcloned from existing constructs into pFASTBAC Dual vector (Life Technologies, Carlsbad, Calif.) using standard cloning procedures. Gene encoding p110alpha subunit was subcloned into polyhedrine promoter while gene encoding p85alpha subunit was subcloned into p10 promoter. Additionally, sequence encoding for histidine tag and Tobacco Etch Virus ("TEV") cleavage site preceded p110alpha ORF (Open Reading Frame). The biochemical assays of kinase activity of full-length PI3Kalpha (full-length p110alpha/p85a) or truncated PI3Kalpha (p110alpha/iSH2 p85a) were conducted using a fluorescence polarization format similar to the procedure of Yuan J., et al., (2011) PF-04691502, a Potent and Selective Oral Inhibitor of PI3K and mTOR Kinases with Antitumor Activity, Mol Cancer Ther. 10, 2189-2199. The enzymatic reactions were conducted in 50 uL volumes in 96-well plates. It is filed as protein-complex assay. For orientation: In fluorescence polarisation assays a small probe gives low polarisation when free and higher when bound to something large.
Chain of PI3-kinase p110-alpha/p85-alpha (P27986 whole entry, the tested form may be a part): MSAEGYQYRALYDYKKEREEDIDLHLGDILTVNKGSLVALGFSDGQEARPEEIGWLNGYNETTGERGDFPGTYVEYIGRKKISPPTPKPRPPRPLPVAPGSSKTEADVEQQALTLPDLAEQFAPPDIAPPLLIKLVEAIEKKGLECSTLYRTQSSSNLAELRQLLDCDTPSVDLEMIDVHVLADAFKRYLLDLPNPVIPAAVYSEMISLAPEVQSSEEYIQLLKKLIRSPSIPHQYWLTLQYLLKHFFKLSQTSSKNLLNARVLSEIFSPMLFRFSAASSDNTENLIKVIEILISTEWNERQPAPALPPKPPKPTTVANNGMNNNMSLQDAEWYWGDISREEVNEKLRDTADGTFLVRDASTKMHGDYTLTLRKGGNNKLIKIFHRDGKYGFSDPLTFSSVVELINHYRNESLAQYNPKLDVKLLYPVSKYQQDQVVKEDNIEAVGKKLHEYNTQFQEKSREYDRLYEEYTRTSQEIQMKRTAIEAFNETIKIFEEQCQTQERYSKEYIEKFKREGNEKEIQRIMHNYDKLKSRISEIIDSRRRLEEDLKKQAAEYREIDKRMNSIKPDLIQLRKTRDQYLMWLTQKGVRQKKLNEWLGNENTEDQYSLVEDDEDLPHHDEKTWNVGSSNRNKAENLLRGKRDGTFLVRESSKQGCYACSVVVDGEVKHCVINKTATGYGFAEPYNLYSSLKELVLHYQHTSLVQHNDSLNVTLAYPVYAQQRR
Chain of PI3-kinase p110-alpha/p85-alpha (P42336 whole entry, the tested form may be a part): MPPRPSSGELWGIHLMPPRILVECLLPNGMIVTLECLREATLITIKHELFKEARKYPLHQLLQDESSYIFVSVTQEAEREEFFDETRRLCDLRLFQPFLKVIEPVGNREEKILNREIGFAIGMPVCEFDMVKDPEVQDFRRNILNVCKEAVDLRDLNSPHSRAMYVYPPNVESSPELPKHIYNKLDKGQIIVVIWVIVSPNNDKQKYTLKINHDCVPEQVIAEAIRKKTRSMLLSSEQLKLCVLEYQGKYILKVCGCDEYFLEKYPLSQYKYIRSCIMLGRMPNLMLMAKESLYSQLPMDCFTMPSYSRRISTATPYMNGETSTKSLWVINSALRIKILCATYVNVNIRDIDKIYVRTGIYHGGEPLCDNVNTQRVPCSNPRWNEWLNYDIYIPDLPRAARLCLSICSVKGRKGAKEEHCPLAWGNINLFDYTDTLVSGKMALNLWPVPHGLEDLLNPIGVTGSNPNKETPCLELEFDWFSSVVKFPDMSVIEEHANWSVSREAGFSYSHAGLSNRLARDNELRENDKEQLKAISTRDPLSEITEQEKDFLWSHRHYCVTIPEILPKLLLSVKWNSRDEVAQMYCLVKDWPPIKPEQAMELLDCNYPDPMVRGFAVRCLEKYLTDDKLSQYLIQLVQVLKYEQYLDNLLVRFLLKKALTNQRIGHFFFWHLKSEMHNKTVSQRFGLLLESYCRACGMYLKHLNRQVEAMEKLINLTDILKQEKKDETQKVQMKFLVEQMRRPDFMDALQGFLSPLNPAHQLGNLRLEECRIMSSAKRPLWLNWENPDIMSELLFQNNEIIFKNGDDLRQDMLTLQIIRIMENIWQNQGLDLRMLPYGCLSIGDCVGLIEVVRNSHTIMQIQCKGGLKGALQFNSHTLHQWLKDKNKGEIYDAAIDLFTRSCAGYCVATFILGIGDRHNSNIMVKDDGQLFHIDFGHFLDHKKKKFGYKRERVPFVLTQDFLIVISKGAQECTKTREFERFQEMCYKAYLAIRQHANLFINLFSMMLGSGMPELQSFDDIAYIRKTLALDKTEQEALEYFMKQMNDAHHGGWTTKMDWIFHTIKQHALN

Take `CC(=O)N[C@H]1C(C)(C)[C@H](N2CCc3c(-c4cnc(N)nc4)nc(N4CCOCC4)nc32)C1(C)C`: affinity was put at a Ki of 1.14 nM.
